ChEMBL document CHEMBL3091320, “6-(4-Pyridyl)pyrimidin-4(3H)-ones as CNS penetrant glycogen synthase kinase-3β inhibitors” (Bioorg Med Chem Lett, 2013)

Columns and labels:
[1] = molecular target: Glycogen synthase kinase-3 beta (Homo sapiens, UniProt P49841); test: Inhibition of human recombinant GSK3beta using prephosphorylated GS1 peptide as substrate after 1 hr by liquid scintillation spectrometry
[2] = Clearance in rat microsomes; type: ADME, Microsome
[3] = Inhibition of CYP1A (unknown origin); type: ADME, Homo sapiens
Rattus norvegicus = test: Reduction in tau protein phosphorylation in Wistar rat prefrontal cortex at 100 mg/kg, ip after 15 mins to 2 hrs by western blot analysis relative to vehicle-treated control; type: functional; design: scale not given: the % may be the effect or the level left; conditions: route intraperitoneal
[4] = Permeability co-efficient in Wistar rat brain at 30 mg/kg, ip measured at 0.25 hrs; type: ADME, organism-based; design: dose 30 mg/kg, route intraperitoneal
Brain = test: Drug uptake in Wistar rat brain at 30 mg/kg, ip measured at 0.25 hrs; type: ADME, organism-based; design: dose 30 mg/kg, route intraperitoneal; conditions: in vivo

Sequence of Glycogen synthase kinase-3 beta (P49841 whole entry): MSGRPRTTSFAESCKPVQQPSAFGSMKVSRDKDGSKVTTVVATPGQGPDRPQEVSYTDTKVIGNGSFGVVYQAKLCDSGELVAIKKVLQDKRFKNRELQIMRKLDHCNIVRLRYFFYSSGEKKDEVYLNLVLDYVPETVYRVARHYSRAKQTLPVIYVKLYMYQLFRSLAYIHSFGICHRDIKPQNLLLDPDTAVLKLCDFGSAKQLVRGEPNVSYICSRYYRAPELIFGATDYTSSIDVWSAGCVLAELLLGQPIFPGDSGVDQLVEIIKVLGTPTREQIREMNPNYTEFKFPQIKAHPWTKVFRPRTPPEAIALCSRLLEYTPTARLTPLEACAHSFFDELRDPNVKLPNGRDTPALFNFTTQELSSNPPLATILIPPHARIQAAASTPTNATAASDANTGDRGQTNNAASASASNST

Structure (SMILES) | IC50 [1] | further results
Cn1c(NCC(=O)c2cccc(C#N)c2)nc(-c2ccncc2)cc1=O | 13 nM | CL [2]: 133 µL/min/mg; IC50 [3]: > 53300 nM
Cn1c(NCC(=O)c2ccc(F)cc2)nc(-c2ccncc2)cc1=O | 52 nM | CL [2]: 166 µL/min/mg; IC50 [3]: 10900 nM
O=c1cc(-c2ccncc2)nc(CCCc2ccccc2)[nH]1 | 500 nM | –
Cn1c(NCC(O)c2ccccc2)nc(-c2ccncc2)cc1=O (configuration not stated) | 23 nM | –
Cn1c(N(CCCCN)CCc2ccccc2)nc(-c2ccncc2)cc1=O | 130 nM | –
Cn1c(NCC(=O)c2ccccc2)nc(-c2ccncc2)cc1=O | 8.9 nM | Activity (Rattus norvegicus): 24%; Kp at 0.25 h [4]: 1.15; Drug uptake (Brain): 11.2 uM/ml; CL [2]: 172 µL/min/mg; IC50 [3]: 5700 nM
O=c1cc(-c2ccncc2)nc(CCCc2ccccc2)n1Cc1ccccc1 | 2200 nM | –
Cn1c(NCC(=O)c2ccccc2F)nc(-c2ccncc2)cc1=O | 27 nM | CL [2]: 158 µL/min/mg; IC50 [3]: 3800 nM
Cc1nc(-c2ccncc2)cc(=O)[nH]1 | 3000 nM | –
O=c1cc(-c2ccncc2)nc(Cc2ccccc2)[nH]1 | 1300 nM | –
Cn1c(N(CCCCCN)CCc2ccccc2)nc(-c2ccncc2)cc1=O | 150 nM | –

Second part, led by results:

IC50 [1] | Structure (SMILES) | further results
38 nM | Cc1cccc(C(=O)CNc2nc(-c3ccncc3)cc(=O)n2C)c1 | CL [2]: 262 µL/min/mg; IC50 [3]: 2200 nM
70 nM | Cn1c(NCCc2ccccc2)nc(-c2ccncc2)cc1=O | –
1300 nM | CCCCc1nc(-c2ccncc2)cc(=O)[nH]1 | –
9800 nM | CCCn1c(CCCc2ccccc2)nc(-c2ccncc2)cc1=O | –
2100 nM | CC(C)c1nc(-c2ccncc2)cc(=O)[nH]1 | –
25 nM | Cn1c(NCC(=O)c2cccc(F)c2)nc(-c2ccncc2)cc1=O | CL [2]: 207 µL/min/mg; IC50 [3]: 4200 nM
39 nM | Cn1c(NCCC2CCCCC2)nc(-c2ccncc2)cc1=O | –
1800 nM | O=c1cc(-c2ccncc2)nc(-c2ccccc2)[nH]1 | –
8900 nM | O=c1cc(-c2ccncc2)nc(CCc2ccccc2)[nH]1 | –
13 nM | Cn1c(NCC(=O)c2cccc(Cl)c2)nc(-c2ccncc2)cc1=O | CL [2]: 262 µL/min/mg; IC50 [3]: 670 nM
200 nM | Cn1c(OCCc2ccccc2)nc(-c2ccncc2)cc1=O | –
2400 nM | CC(C)Cc1nc(-c2ccncc2)cc(=O)[nH]1 | –
1900 nM | CCn1c(CCCc2ccccc2)nc(-c2ccncc2)cc1=O | –
90 nM | Cn1c(CCCc2ccccc2)nc(-c2ccncc2)cc1=O | –
